{
  "source": "patent US7615672B2",
  "about": "“Process for the preparation of n-heneicosane” (Defence Research & Development Organisation, priority 2005, dated 2009)",
  "origin": "cited, not measured here",
  "system": "Aedes aegypti",
  "conditions": "oviposition attractant pheromone",
  "data": [
    {"compound": "CCCCCCCCCCCCCCCCCCCCC", "note": "[n-heneicosane]", "values": [
      {"measurement": "concentration at which n-heneicosane attracts Aedes aegypti mosquitoes", "value": "less than 100 ppm"}
    ]}
  ]
}
